Measurements from ChEMBL document CHEMBL5614450, “SAR Study of 4,8-Disubstituted Pyrimido[5,4-d]pyrimidines Exhibiting Antitrypanosomal and Antileishmanial Activity” (ACS Med Chem Lett, 2024).

Experiments:
Trypanosoma brucei = test: Anti-trypanosomal activity against trypomastigote blood stage of Trypanosoma brucei Lister 427 assessed as inhibition of parasite growth incubated for 72 hrs by resazurin-dye based assay; assay type: functional, organism-based; conditions: Lister 427, 72 h
[1] = Cytotoxicity against human THP-1 cells assessed as reduction in cell viability incubated for 72 hrs by MTT assay; assay type: toxicity, cell-based
[2] = Selectivity index, ratio of CC50 for cytotoxicity against human THP-1 cells to IC50 for anti-trypanosomal activity against trypomastigote blood stage of Trypanosoma brucei Lister 427; assay type: toxicity, cell-based; conditions: read-out: Ratio CC50/IC50
Leishmania infantum [3] = test: Anti-leishmanial activity against promastigote stage of Leishmania infantum MHOM/MA/67/ITMAP-263 assessed as inhibition of parasite growth at 10 uM incubated for 72 hrs by resazurin-dye based assay; assay type: functional
Leishmania infantum [4] = test: Anti-leishmanial activity against promastigote stage of Leishmania infantum MHOM/MA/67/ITMAP-263 assessed as inhibition of parasite growth incubated for 72 hrs by resazurin-dye based assay; assay type: functional, organism-based; conditions: MHOM/MA/67/ITMAP-263, 72 h
Leishmania infantum [5] = test: Anti-leishmanial activity against luciferase expressing intracellular amastigote stage of Leishmania infantum MHOM/MA/67/ITMAP-263 infected in human THP-1 cells assessed as inhibition of parasite growth at 10 uM incubated for 72 hrs by Steady-Glo luciferase assay; assay type: functional; conditions: MHOM/MA/67/ITMAP-263, THP-1
Leishmania infantum [6] = test: Anti-leishmanial activity against luciferase expressing intracellular amastigote stage of Leishmania infantum MHOM/MA/67/ITMAP-263 infected in human THP-1 cells assessed as inhibition of parasite growth incubated for 72 hrs by Steady-Glo luciferase assay; assay type: functional, organism-based; conditions: MHOM/MA/67/ITMAP-263, THP-1, 72 h
[7] = Selectivity index, ratio of CC50 for cytotoxicity against human THP-1 cells to IC50 for anti-leishmanial activity against promastigote stage of Leishmania infantum MHOM/MA/67/ITMAP-263; assay type: toxicity, cell-based; conditions: read-out: Ratio CC50/IC50
[8] = Selectivity index, ratio of CC50 for cytotoxicity against human THP-1 cells to IC50 for anti-leishmanial activity against luciferase expressing intracellular amastigote stage of Leishmania infantum MHOM/MA/67/ITMAP-263 infected in human THP-1 cells; assay type: toxicity, cell-based; conditions: read-out: Ratio CC50/IC50
[9] = Cytotoxicity against human A549 cells assessed as reduction in cell viability at 10 uM incubated for 24 hrs by Cell-Titer Glo luminescence assay; assay type: toxicity, cell-based; conditions: read-out: INH
[10] = Cytotoxicity against human HEK293 cells assessed as reduction in cell viability at 10 uM incubated for 24 hrs by Cell-Titer Glo luminescence assay; assay type: toxicity, cell-based; conditions: read-out: INH
CYP3A4 = CYP3A4 (Homo sapiens, UniProt P08684); test: Inhibition of human CYP3A4 expressed in insect cell microsomes at 10 uM preincubated for 20 mins followed by NADP+ and substrate addition and measured after 10 mins by fluorescence based analysis; assay type: ADME, Microsome; conditions: recombinant human CYP3A4 expressed in insect cell microsomes, time 30 min
Chain of CYP3A4 (P08684 whole entry): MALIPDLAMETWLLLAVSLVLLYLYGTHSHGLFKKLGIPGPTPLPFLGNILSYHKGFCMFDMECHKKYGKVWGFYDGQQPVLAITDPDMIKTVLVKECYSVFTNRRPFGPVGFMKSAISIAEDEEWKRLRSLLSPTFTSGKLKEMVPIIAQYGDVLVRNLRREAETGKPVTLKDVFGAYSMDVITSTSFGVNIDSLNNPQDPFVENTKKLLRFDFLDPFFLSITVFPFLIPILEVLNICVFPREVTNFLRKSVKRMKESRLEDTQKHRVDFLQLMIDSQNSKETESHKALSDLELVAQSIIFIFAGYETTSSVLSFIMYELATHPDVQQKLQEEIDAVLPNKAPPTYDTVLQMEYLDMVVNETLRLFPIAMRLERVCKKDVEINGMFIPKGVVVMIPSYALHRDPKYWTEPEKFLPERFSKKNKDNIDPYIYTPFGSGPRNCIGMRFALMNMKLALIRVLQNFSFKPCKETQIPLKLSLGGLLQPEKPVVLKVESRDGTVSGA

hERG (KCNH2) = hERG (KCNH2) (Homo sapiens, UniProt Q12809); test: Displacement of tracer from hERG extracted from membrane at 10 uM incubated for 2 hrs by fluorescence polarization assay; assay type: toxicity, cell membranes; conditions: hERG membrane preparation, probe tracer (not named)
Chain of hERG (KCNH2) (Q12809 whole entry): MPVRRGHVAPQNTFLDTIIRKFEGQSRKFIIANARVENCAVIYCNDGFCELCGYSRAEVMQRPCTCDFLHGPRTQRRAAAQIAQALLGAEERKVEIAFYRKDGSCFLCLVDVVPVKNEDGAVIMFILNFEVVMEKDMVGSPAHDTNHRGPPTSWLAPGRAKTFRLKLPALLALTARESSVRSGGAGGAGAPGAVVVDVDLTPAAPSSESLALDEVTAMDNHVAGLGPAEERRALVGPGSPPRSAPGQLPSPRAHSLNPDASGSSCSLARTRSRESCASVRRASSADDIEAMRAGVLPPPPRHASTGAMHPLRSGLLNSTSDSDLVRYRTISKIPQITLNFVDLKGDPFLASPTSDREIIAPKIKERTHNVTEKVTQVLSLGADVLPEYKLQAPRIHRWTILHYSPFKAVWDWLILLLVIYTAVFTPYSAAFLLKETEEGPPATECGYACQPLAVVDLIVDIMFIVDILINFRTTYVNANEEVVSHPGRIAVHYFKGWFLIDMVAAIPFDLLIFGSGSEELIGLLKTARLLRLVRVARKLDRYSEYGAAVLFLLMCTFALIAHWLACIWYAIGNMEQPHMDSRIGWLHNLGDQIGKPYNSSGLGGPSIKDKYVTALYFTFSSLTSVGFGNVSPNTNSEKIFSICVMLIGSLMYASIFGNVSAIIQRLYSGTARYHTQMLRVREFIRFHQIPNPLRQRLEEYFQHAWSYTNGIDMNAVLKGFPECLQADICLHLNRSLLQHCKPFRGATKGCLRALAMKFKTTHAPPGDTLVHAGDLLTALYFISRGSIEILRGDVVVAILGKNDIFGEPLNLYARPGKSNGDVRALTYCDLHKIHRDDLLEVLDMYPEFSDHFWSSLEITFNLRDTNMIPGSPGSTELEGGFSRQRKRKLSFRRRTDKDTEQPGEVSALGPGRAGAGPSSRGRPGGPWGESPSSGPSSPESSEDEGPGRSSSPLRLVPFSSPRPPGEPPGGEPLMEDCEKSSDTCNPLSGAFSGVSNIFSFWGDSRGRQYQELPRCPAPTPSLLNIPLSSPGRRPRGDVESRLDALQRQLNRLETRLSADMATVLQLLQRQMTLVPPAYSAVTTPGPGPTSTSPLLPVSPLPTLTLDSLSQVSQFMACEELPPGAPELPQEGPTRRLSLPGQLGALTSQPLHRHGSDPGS

Row | SMILES | IC50 (Trypanosoma brucei) [nM] | CC50 at 72 h [1] [nM] | selectivity ratio [2] | inhibition at 10 µM (Leishmania infantum [3]) [%] | IC50 (Leishmania infantum [4]) [nM] | inhibition at 10 µM (Leishmania infantum [5]) [%] | IC50 (Leishmania infantum [6]) [nM] | selectivity ratio [7] | selectivity ratio [8] | cytotoxicity at 24 h, 10 µM [9] [%] | cytotoxicity at 24 h, 10 µM [10] [%] | inhibition at 10 min, 10 µM (CYP3A4) [%] | inhibition at 2 h, 10 µM (hERG (KCNH2)) [%]
1 | COc1ccc(Nc2ncnc3c(N/N=C/c4ccc(OC)c(OC)c4)ncnc23)cc1 | 2440 | > 100000 | > 41 | 98 | 1930 | 85 | 3000 | > 52 | > 33 | 23 | 12 | 0 | 0
2 | COc1ccc(Nc2ncnc3c(N/N=C/c4ccc(O)c(O)c4)ncnc23)cc1 | 550 | > 100000 | > 182 | 98 | 990 | 87 | 3130 | > 101 | > 32 | 39 | 18 | 2 | 36
3 | COc1cccc(Nc2ncnc3c(N/N=C/c4ccc(O)c(O)c4)ncnc23)c1 | 1280 | > 50000 | > 39 | 94 | 1670 | 62 | 8510 | 30 | 6 | 22 | 7 | 2 | 18
